Laboratory results as given in publication PMC8536644, “Enigmatic mechanism of the N-vinylpyrrolidone hepatocarcinogenicity in the rat” (Archives of Toxicology, 2021).

How the values were obtained:
CYP2B = test: PROD assay, lung microsomes; type: in vivo, rat; settings: 20 ppm
Procedure: The alkoxyresorufin dealkylase (AROD) assays were based on the method by Burke et al. ([1994]).
The frozen livers and lungs of the NVP-treated male Wistar rats were thawed and washed with isotonic (0.9%) NaCl solution. The tissues were ice-cooled homogenized (1 g tissue: 3 mL 0.25 M saccharose in 1 mM disodium EDTA, pH 7.4) and centrifuged (9000 g, 15 min, 4 °C). The supernatant fraction was centrifuged (100 000 g, 60 min, 4 °C). The resulting supernatant fraction was used for the palmitoyl-CoA-oxidase assay described further down. The pellet was taken up in 150 mM aqueous KCl solution, recentrifuged (100 000 g, 60 min, 4 °C) and the pellet taken up in 1 mL/g liver or 0.5 mL/g lung resuspension buffer (1 mM GSH, 1 mM disodium EDTA, 4 mM MgCl2, 0.1 M KH2PO4, pH 7.5 and 4% glycerol). […]
For determination of the enzyme activities in triplicates, 85 µL master mix (100 mM TrisHCl pH 7.5, 2 mM 5’AMP, 5 mM G-6-P, 10 U G-6-P-DH, 10 mM Dicumarol, 10 mM MgCl2, either 2 µM EROD or 10 µM PROD or 5 µM BROD) was added to 10 µL microsomal fraction (1 mg protein/mL). […] The activity was determined by measuring the increase of the fluorescence (excitation at 550 nm, emission at 585 nm) due to resorufin formation compared with resorufin standards, which had been prepared by dissolving tenfold concentrated solutions in DMSO, which were then diluted tenfold in 100 mM TrisHCl pH 7.5.

rat liver = test: Liver histology, hematoxylin–eosin staining; type: in vivo
Procedure: HE staining was performed essentially according to Romeis ([2010]), specifically under the following conditions:
Parts of the frozen (− 80 °C) livers from rats treated with 0, 5, 10 or 20 ppm NVP were thawed in formalin (specifically 4% formaldehyde in sodium phosphate buffer pH 7) and left therein for fixation at least 7 days. Subsequently the livers were cut into approximately 4 mm-thick slices, which were dehydrated in increasingly concentrated ethanol (70–100%), washed in xylene and then transferred into fluid paraffin. The livers were put into kassettes with the parts which were foreseen for cutting toward the bottom, the kassettes filled with paraplast (melting point 58–62 °C) and the material left for hardening. From the embedded livers 3- to 6 µm-thick slices were cut by a rotation microtome, then stretched (in a water bath at 45 °C), transferred to a slide and dried overnight at 50 °C. Subsequently the slices were stained with HE and covered with Pertex. The slices were then microscopically evaluated. Structural changes were classified into severity grades 0, 1, 2 and 3.

[1] = tested on: palmitoyl CoA oxidase/acyl CoA oxidase; test: Cyanide-insensitive palmitoyl-CoA oxidase assay, liver cytosol (PPARα marker); type: in vivo, rat; settings: male rats
Procedure: Cyanide-insensitive palmitoyl-CoA oxidase was determined essentially according to the method by Lazarow ([1981]), specifically as follows:
Five µL of the liver cytosol (prepared as described in the preceding chapter “Aryl hydrocarbon receptor”) derived from the NVP-treated (and untreated control) male rats were mixed in a centrifugal analyzer Cobas Fara II (Hoffmann La Roche) with 250 µL reaction mixture consisting of 28.2 mL 50 mM Tris buffer pH 8.01, 150 µL 2% Triton-X-100, 300 µL 1 mM FAD, 300 µL 10 mM CoA, 150 µL 1.5% BSA, 90 µL 0.33 mM dithiothreitol, 300 µL 20 mM NAD and after homogenization 300 µL 100 mM KCN. The reaction was started by adding 5 µL of 5.03 µM palmitoyl-CoA aqueous solution. The increase of the absorption at ʎ = 334 nm due to NADH formation was determined and translated to palmitoyl-CoA oxidase U/L by the Cobas Fara II software.

CYP 2B/3A = test: BROD inhibition control in Aroclor 1254-induced rat liver microsomes; type: biochemical; settings: for BROD enzyme activity: 0 µM control 445.1 ± 9.1
Procedure: For determination of the enzyme activities in triplicates, 85 µL master mix (100 mM TrisHCl pH 7.5, 2 mM 5’AMP, 5 mM G-6-P, 10 U G-6-P-DH, 10 mM Dicumarol, 10 mM MgCl2, either 2 µM EROD or 10 µM PROD or 5 µM BROD) was added to 10 µL microsomal fraction (1 mg protein/mL). The reaction was started by the addition of 5 µL 2 mM NADPH (dissolved in 100 mM TrisHCl pH 7.5) followed by incubation at 37 °C for 16 min. The activity was determined by measuring the increase of the fluorescence (excitation at 550 nm, emission at 585 nm) due to resorufin formation compared with resorufin standards, which had been prepared by dissolving tenfold concentrated solutions in DMSO, which were then diluted tenfold in 100 mM TrisHCl pH 7.5.
As a method control the described AROD assay was performed with microsomal fractions derived from liver and lung of male Wistar rats which had been treated i.p. for 5 days with aroclor 1254 (500 mg/kg bw). These control assays were performed in presence of 1 μM, 10 μM or 100 μM NVP, respectively, in order to check for potential interactions of NVP with the substrate turnover in the AROD assay.

With `C=CN1CCCC1=O` [NVP, N-vinylpyrrolidone] the “PROD activity in lung microsomes vs vehicle control” value (CYP2B) was “not significantly different”, the “Males without centrilobular hepatocellular fatty change” value (rat liver; 5 ppm, three males examined) was “two of three” and the “Animals with low-grade (grade 1) centrilobular hepatocellular fatty change” value (rat liver; 10 ppm, males) was “two of three”. For the same compound, the “Animals with grade 1 centrilobular hepatocellular fatty change” value (rat liver; 20 ppm, females) was “one of three”, the “Animals with grade 2 centrilobular hepatocellular fatty change” value (rat liver; 20 ppm, females) was “one” and the “Animals with high-grade (grade 3) centrilobular hepatocellular fatty change” value (rat liver; 20 ppm, males) was “two of three”. For the same compound, the “Cyanide-insensitive palmitoyl CoA oxidase activity in liver cytosol” value ([1]; 5 ppm) was 5.43 ± 0.71 nmol/min/mg protein, the “Cyanide-insensitive palmitoyl CoA oxidase activity in liver cytosol” value ([1]; 10 ppm) was 5.47 ± 0.71 nmol/min/mg protein and the “Cyanide-insensitive palmitoyl CoA oxidase activity in liver cytosol” value ([1]; 20 ppm, statistically significantly reduced) was 4.68 ± 0.71 nmol/min/mg protein. For the same compound, the BROD enzyme activity (CYP 2B/3A; 1 µM NVP) was 470.1 ± 29.7 pmol/min/mg protein, the BROD enzyme activity (CYP 2B/3A; 10 µM NVP) was 445.1 ± 20.9 pmol/min/mg protein and the BROD enzyme activity (CYP 2B/3A; 100 µM NVP) was 456.5 ± 30.9 pmol/min/mg protein. The “Inhibition of BROD activity” value (CYP 2B/3A; 1, 10 or 100 µM NVP) was “does not lead to inhibition”.
